The source of these data is publication PMC12687449, “Membrane disruption attenuates agonist potency in prostanoid receptors” (Biochemical Journal, 2025).

The target in experiment [1] is ETB receptor (wildtype) (human) (UniProt P24530).
A further experiment addresses T1, DP2 receptor (Homo sapiens, UniProt Q9Y5Y4).
T1 construct: host or cells: HEK293T (transient)
T1 sequence (Q9Y5Y4 1-395): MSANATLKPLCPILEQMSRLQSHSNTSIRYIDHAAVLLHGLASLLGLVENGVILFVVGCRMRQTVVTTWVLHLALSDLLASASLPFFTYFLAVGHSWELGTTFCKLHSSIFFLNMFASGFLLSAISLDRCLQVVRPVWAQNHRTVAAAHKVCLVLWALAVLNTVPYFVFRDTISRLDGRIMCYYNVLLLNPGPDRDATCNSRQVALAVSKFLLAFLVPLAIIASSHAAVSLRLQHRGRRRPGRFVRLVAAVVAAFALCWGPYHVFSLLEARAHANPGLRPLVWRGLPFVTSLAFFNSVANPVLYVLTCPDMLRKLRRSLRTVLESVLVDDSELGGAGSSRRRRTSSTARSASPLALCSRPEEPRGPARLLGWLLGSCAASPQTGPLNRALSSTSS
The experiment is described as follows: BRET-based G protein activation, wildtype DP2 receptor + Gαo biosensor in HEK293T cells. It counts as cell-based. Here is the method:
Two days before BRET measurements were performed, HEK293T cells were transiently transfected with 3 µg of cDNAs containing TP receptor, ETB receptor, DP2 receptor, or S1P3 receptor and 3 µg of cDNAs containing Gβ3-T2A-cpVenus-Gγ9-IRES-Gαq-NLuc or Gβ3-T2A-cpVenus-Gγ9-IRES-Gαo1-NLuc using linear 25 kDa PEI reagent (polyethylenimine, PolyScience Inc., Hirschberg an der Bergstraße, Germany). The ratio between DNA and PEI was 1:3, and 50 µl serum-free DMEM was added per 1 µg DNA. The same amount of serum-free DMEM was also added separately to the PEI solution. DNA-DMEM and PEI-DMEM mixtures were incubated for 5 minutes, followed by incubation of the final mixture for another 10 minutes. […]
Two days before the actual measurement, HEK293T cells were transiently transfected and seeded on microplates. […] The measurements were performed using a Spark 20M plate reader (Tecan) at 37°C. Initially, the cells were measured for the baseline emission ratio. After the baseline measurement, 20 µl of external or internal buffer containing differing concentrations of either U-46619, 4-Ala ET-1, PGD,2 or S1P or external or internal buffer alone were added to the cells and measured. […] The cells were measured from the top and the donor luminescence (NLuc) was recorded at 415 to 470 nm and the acceptor luminescence (cpVenus) at 520 to 590 nm. Data were recorded using SparkControl^TM software. […]
In general terms: BRET reads energy transfer from a luciferase to a nearby fluorophore.

Experiment [2] deals with T2, DP2 receptor conformation sensor (Homo sapiens, UniProt Q9Y5Y4).
T2 sequence (Q9Y5Y4 1-231 limits assumed): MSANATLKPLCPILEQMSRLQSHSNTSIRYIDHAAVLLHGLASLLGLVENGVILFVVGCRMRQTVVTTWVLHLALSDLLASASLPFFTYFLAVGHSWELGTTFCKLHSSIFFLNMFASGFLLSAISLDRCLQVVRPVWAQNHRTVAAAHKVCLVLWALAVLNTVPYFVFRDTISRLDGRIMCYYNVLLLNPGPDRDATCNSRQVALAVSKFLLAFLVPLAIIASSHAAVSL
T2 sequence (Q9Y5Y4 248-308 limits assumed): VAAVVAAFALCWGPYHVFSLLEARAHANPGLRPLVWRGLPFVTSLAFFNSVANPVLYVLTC
The experiment in a line: FRET-based DP2 receptor conformation sensor, multiple-cell measurements in HEK293 cells or membrane fragments. Here is the method:
(§1) HEK293 cells stably expressing the EP4 receptor, IP receptor, or DP2 receptor conformation sensor were seeded on 15 cm Ø dishes and grown until optical confluence. The cells were washed once with Dulbecco’s PBS (Capricorn Scientific GmbH), without Ca & Mg and Phenol Red (phosphate-buffered saline, PBS). After adding 5 ml PBS to the cells, the dish was treated with liquid nitrogen until the solution was visibly frozen. These dishes were stored at −80°C until the measurements were carried out. On the day of the measurement, the dishes were removed from the freezer and stored at room temperature until the buffer solution had thawed. The material was collected with a cell scraper and centrifuged (5000 rpm/5 min). […]
Intact HEK293 cells stably expressing the EP4 receptor, IP receptor, or DP2 receptor conformation sensors were counted, adjusted to 100,000–120,000 cells per well, and seeded on poly-L-lysine coated microplates one day before measurement. […]
We used a Spark 20M plate reader (Tecan, Männedorf, Switzerland) for multiple-cell FRET measurements of intact cells or membrane fragments. The cells were measured from the bottom and the donor fluorescent protein (mT2) was excited at 430 nm. First, the cells were measured for the baseline emission ratio. […] The emitted donor fluorescence (mT2) and acceptor fluorescence (eYFP) were recorded at 485 nm and 535 nm, respectively. […]

The target in experiment [3] is EP4 receptor conformation sensor (Homo sapiens, UniProt P35408). The experiment is described as follows: FRET-based EP4 receptor conformation sensor stably expressed in HEK293 cells (intact, saponin-permeabilized, membrane fragments). It is filed as cell-based. On the procedure:
(§2) The cells were washed once with external buffer and subsequently incubated 2 minutes for single-cell FRET measurements or 10 minutes for BRET measurements in 0.05% saponin (AppliChem, Darmstadt, Germany) dissolved in internal buffer. Afterward, the cells were washed five times for single-cell FRET measurements or three times for BRET measurements with internal buffer.
as §1, with “min). The supernatant was discarded, the pellet containing the membrane fragments was resuspended with external buffer containing 0.1% BSA and seeded on microplates.” for “min).”

Experiment [4] deals with T3, EP2 receptor conformation sensor (Homo sapiens, UniProt P43116, DEL238-250).
T3 construct: mT2 insertion and truncation after Q349; expressed in transfected cells
T3 sequence (P43116 with tags, fused parts or gaps DEL238-250): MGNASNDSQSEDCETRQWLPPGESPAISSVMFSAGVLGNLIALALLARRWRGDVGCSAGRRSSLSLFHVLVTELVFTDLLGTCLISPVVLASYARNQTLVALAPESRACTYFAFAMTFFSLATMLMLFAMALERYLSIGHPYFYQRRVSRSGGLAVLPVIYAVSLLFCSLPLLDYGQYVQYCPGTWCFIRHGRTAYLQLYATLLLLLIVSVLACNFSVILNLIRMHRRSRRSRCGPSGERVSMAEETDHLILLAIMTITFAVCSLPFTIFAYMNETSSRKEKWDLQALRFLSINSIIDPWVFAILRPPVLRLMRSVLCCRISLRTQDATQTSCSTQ
The experiment in a line: FRET-based EP2 receptor conformation sensor, single-cell measurements in HEK293 cells. The following applies: saponin-permeabilized cells, 3000 nM PGE2, reference 20 µM PGE2. Here is the method:
as §2
The coverslips loaded with stably transfected HEK293 cells containing either the FFA3 receptor, α2A-AR CAM, or ETB receptor conformation sensors were clamped in an Attofluor^TM cell chamber and were washed once with external buffer. Afterward, they were side by side either permeabilized or directly measured at room temperature by the use of an inverted microscope (Elipse Ti2, Nikon, Düsseldorf, Germany), equipped with a 100× oil immersion objective (Plan Apo λ 100 x/1.45 oil ∞/0.17 WD 0.13, Nikon, Düsseldorf, Germany) and dual excitation and dual emission imaging capabilities. […] The fluorescence emission of mT2 and the respective YFP variant was simultaneously collected by a second beamsplitter (488, Chroma, Bellows Falls, Vermont, U.S.A.) and two emission filters (mT2: 474/27, Chroma; YFP: 544/23, Chroma). […] For all single-cell FRET experiments, cells were prospectively selected based on a continuous plasma-membrane fluorescence rim and appropriate fluorescence distribution to ensure a PM-dominant receptor signal. […]

Another experiment deals with S1P3 receptor (Homo sapiens, UniProt Q99500). The experiment is described as follows: BRET-based G protein activation, wildtype S1P3 receptor + Gαq biosensor in HEK293T cells. It counts as cell-based. An excerpt: […] Afterward, the cells were washed five times for single-cell FRET measurements or three times for BRET measurements with internal buffer.
Chain of S1P3 receptor (Q99500 whole entry): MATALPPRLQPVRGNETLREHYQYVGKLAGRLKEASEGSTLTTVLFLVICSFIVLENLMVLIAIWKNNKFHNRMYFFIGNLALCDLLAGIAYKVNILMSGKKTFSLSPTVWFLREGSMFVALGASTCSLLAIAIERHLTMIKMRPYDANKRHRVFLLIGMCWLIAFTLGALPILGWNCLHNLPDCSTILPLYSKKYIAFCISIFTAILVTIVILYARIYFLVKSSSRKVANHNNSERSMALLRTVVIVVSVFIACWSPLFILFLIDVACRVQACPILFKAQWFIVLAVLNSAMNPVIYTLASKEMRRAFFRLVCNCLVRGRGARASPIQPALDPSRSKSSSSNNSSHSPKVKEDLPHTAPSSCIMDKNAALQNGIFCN
Concentration-response curves were fitted in GraphPad Prism 8 using nonlinear regression (log(agonist) vs. response - variable slope (four parameters)) with the hillslope set to 1, the bottom constrained to 0 and the top to 1 using the following equation: […]

The target in experiment [5] is T4, TP receptor conformation sensor (Homo sapiens, UniProt P21731).
T4 sequence (P21731 1-311 limits assumed): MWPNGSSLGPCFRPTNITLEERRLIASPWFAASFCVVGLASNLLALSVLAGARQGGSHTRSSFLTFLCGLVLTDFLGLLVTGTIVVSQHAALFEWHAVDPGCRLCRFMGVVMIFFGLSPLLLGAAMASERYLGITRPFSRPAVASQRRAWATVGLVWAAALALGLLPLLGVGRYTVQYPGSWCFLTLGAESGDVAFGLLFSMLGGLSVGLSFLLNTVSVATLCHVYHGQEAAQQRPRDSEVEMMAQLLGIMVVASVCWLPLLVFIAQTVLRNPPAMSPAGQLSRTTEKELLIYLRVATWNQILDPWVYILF
The experiment is described as follows: FRET-based TP receptor conformation sensor, single-cell measurements in HEK293 cells. Conditions: 1 µM U-46619, reference 8 µM U-46619.

[6] abbreviates: saponin-permeabilized cells with 1 µM GTP.

pEC50: −log10 of the molar value.

Chain of EP4 receptor conformation sensor (P35408 1-332 limits assumed): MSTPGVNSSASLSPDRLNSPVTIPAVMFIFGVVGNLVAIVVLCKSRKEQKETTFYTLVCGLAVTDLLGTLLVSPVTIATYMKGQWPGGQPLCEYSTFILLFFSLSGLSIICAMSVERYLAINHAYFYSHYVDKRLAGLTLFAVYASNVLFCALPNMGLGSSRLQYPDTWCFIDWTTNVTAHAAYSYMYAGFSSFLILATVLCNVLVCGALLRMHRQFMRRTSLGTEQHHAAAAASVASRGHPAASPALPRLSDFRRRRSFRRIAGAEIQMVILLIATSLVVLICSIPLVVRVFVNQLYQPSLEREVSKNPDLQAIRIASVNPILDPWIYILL
Chain of ETB receptor (wildtype) (human) (P24530 27-442): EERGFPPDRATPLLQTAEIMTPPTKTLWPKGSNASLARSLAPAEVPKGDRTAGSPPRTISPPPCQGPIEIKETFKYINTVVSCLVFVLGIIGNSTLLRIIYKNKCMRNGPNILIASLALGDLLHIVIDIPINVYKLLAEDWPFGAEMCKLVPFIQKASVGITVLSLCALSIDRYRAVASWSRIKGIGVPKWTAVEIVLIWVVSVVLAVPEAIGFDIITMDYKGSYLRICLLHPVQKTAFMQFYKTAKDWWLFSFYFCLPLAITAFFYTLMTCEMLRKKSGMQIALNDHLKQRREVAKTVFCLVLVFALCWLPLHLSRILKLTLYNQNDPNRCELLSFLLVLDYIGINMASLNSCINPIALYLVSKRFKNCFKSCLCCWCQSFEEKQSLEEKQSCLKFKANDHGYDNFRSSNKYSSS

4-Ala endothelin-1 (peptide) gave a BRET-based Gαq biosensor activation in HEK293T cells, concentration-response to 4-Ala ET-1: change of agonist potency in saponin-permeabilized cells with 1 µM GTP against intact cells (Figure 4F) in experiment [1] of 15 fold.
One may read the pEC50 as −log10 of the EC50, conventionally taken in molar units. `CCCCC[C@H](O)/C=C/[C@H]1C(=O)C[C@H](O)[C@@H]1C/C=C\CCCC(=O)O` [PGD2, (Z)-7-[(1R,2R,5S)-5-hydroxy-2-[(E,3S)-3-hydroxyoct-1-enyl]-3-oxocyclopentyl]hept-5-enoic acid]: the pEC50 is 9.25 on DP2 receptor (intact HEK293T cells) and 7.69 at DP2 receptor (setting [6]). Also, the “response to the agonist” value in experiment [2] (intact cells) was “strong response”; in experiment [2] (membrane fragments) it was “almost no response”.
In the case of `CCCCC[C@H](O)/C=C/[C@H]1[C@H](O)CC(=O)[C@@H]1C/C=C\CCCC(=O)O` [PGE2, (Z)-7-[(1R,2R,3R)-3-hydroxy-2-[(E,3S)-3-hydroxyoct-1-enyl]-5-oxocyclopentyl]hept-5-enoic acid], the activation at 0.3 µM in experiment [3] (HEK293, read-out: normalized response to 10 times EC50) came to 53%. Moreover, the “response to 10 times EC50” value in experiment [3] (saponin-permeabilized cells, internal buffer supplemented with 5 mM ATP and 25 µM GTP) is on record as 56% ± 1. In addition, the “response to the test concentration normalized to saturating concentration” value was 56% ± 1 in experiment [3] (saponin-permeabilized cells, internal buffer, 300 nM PGE2, reference 20 µM PGE2) and “about 51% ± 6” in experiment [4].
Turning to `CCCCCCCCCCCCC/C=C/[C@@H](O)[C@@H](N)COP(=O)(O)O` [S1P, Sphingosine-1-phosphate], the pEC50 at S1P3 receptor (intact HEK293T cells) was 7.55; on S1P3 receptor (setting [6]), 9.26.
For the molecule `CCCCCC(O)/C=C/C1C2CC(CO2)C1C/C=C\CCCC(=O)O` (stereo not drawn) [U-46619, 9,11-dideoxy-9α,11α-methanoepoxy-prosta-5Z,13E-dien-1-oic acid], the “response to the test concentration (about 10 times EC50) normalized to saturating concentration” value in experiment [5] (intact cells) is recorded as “full response”. Also, in experiment [5] (saponin-permeabilized cells), the “response to the test concentration normalized to saturating concentration” value is listed as 59% ± 1.
